Assay results: patent US10758541B2, “Formulations of milciclib and therapeutic combinations of the same for use in the treatment of cancer” (Tiziana Life Sciences PLC, priority 2017, dated 2020)

Tests used:
[1] = tested on: MHCC97H cells; assay: IC50 values by cell proliferation assay (WST-1); format: cell-based, human; conditions: Homo sapiens, MHCC97H, 72 h, individual inhibitor, 72 hours, WST-1; read-out: MHCC97H IC50
Description: (§1) MHCC97H and MHCC97L (highly metastatic hepatocellular carcinoma cell line, derived from humans)
Cells (MHCC97H, MHCC97L, and HepG2.2.15) were cultured for 24 hours in 2% FBS and then were trypsinized, resuspended in 2% FBS and seeded in a rat collagen coated 96-well plate at a density of 10,000 cells/100 μl/well, a day before the experiment and cultured at 37° C. in 5% CO2. The cells were treated the next day with milciclib, sorafenib, regorafenib, sunitinib, and lenvatinib, individually or in combination in DMEM/F12+2% FBS+for 72 hours prior to the addition of WST-1 reagent. About 100 μL media was added to control well. […] To determine cell proliferation by the colorimetric test, 10 μL of WST-1 reagent (Sigma Aldrich, St Louis, Mo.) was added in 100 μL cell culture media and incubated for 2 hours in 5% CO2 at 37° C. At the end of incubation period, the plate was placed on a plate shaker for 1 minute and was monitored using a spectrophotometer at an optical density of 450 nm with a reference wavelength of 600 nm using Tecan F200 and iControl software. IC50 values were determined using GraphPad Prism (GraphPad Software, La Jolla, Calif.). Each experiment was performed in duplicate and repeated 2 times.

[2] = tested on: pAKT (Ser473), AKT, c-Myc, Cyclin D1, PTEN; assay: Western blot analysis of tumor tissues; format: in vivo, mice; conditions: liver samples, vs vehicle treated group
Description: The tumor tissues from a thymic nude mice were weighed and homogenized with RIPA lysis buffer (Sigma-Aldrich, St. Louis, Mo.) and protease inhibitor cocktail (Sigma-Aldrich, St. Louis, Mo.). Tumor lysates were cleared by centrifugation and the protein concentration was determined using Bradford reagent (Sigma-Aldrich, St. Louis, Mo.). Equal amounts of protein (30 μg) were resolved on precast polyacrylamide gels (Thermo Fisher Scientific, Rockford, Ill.) and transferred to nitrocellulose membrane, 0.2 μm pore size (Thermo Fisher Scientific, Rockford, Ill.). The blots were blocked with 5% (w/v) nonfat dry milk for 2 h at room temperature and then probed with primary antibody overnight at 4° C. The primary antibodies were directed against the following proteins: human PTEN, human AKT and phospho-AKT (Ser473), human c-Myc, human CyclinD1 and human β-actin (Cell Signaling Technology, Beverly, Mass.). After three washes, incubation was followed by the reaction with horseradish peroxidase-conjugated secondary antibody for 1 h at room temperature. The immunoreactive bands were visualized using Image Studio 4.0-Western Analysis Ribbon (Li-Cor, Lincoln, Nebr.).

[3] = tested on: p27, p21, p57, p53, cyclin D1, cyclin E2, MKI67, c-Myc, CdC6; assay: Quantitative real-time PCR gene expression in orthotopic HCC tumors; format: in vivo; conditions: orthotopic HCC mice
Description: Total RNA was extracted using the RNeasy Mini kit according to the manufacturer's instructions (Qiagen, Germantown, Md.). RNA was quantified using Nanodrop Lite (Thermo Scientific, Wilmington, Del.). Complementary DNA (cDNA) synthesis was performed by reverse transcription of total RNA using the High Capacity cDNA Reverse Transcription Kit (Thermo Fisher Scientific, Rockford, Ill.). Real-time quantitative PCR was employed using the LightCycler 480 Instrument II (Roche Diagnostics Corporation, Indianapolis, Ind.) using TaqMan Fast Advanced Master Mix and TaqMan Gene Expression probes for human p27, cyclin E2, cyclin A2, CdC6, MKI67, cyclin D1, p21, p57, c-Myc and p53 (Thermo Fisher Scientific). The expression of target genes was normalized to the housekeeping gene GAPDH in each sample. All samples were run in duplicate and the relative gene expression calculated as 2−ΔCT was expressed as fold increase over control samples.

[4] = tested on: MHCC97L cells; assay: IC50 values by cell proliferation assay (WST-1); format: cell-based; conditions: Homo sapiens, individual inhibitor, 72 hours
Description: See Shailubhai, K et al. “Atiprimod is an inhibitor of cancer cell proliferation and angiogenesis.” J Exp Ther Oncol. 2004; 4: 267-279; and Choudhari et al. “Deactivation of Akt and STAT3 signaling promotes apoptosis, inhibits proliferation, and enhances the sensitivity of hepatocellular carcinoma cells to an anticancer agent, atiprimod” Molecular Cancer Therapeutics. 2007; 6: 112-121. References are incorporated herein in their entireties.
as §1
Cells (MHCC97H, MHCC97L, and HepG2.2.15) were cultured for 24 hours in 2% FBS and then were trypsinized, resuspended in 2% FBS and seeded in a rat collagen coated 96-well plate at a density of 10,000 cells/100 μl/well, a day before the experiment and cultured at 37° C. in 5% CO2. The cells were treated the next day with milciclib, sorafenib, regorafenib, sunitinib, and lenvatinib, individually or in combination in DMEM/F12+2% FBS+for 72 hours prior to the addition of WST-1 reagent. About 100 μL media was added to control well. After cells had been cultured for 72 hours with different drug concentrations, cells were washed 3 times with sterile 1× Phosphate buffered saline (PBS). To determine cell proliferation by the colorimetric test, 10 μL of WST-1 reagent (Sigma Aldrich, St Louis, Mo.) was added in 100 μL cell culture media and incubated for 2 hours in 5% CO2 at 37° C. At the end of incubation period, the plate was placed on a plate shaker for 1 minute and was monitored using a spectrophotometer at an optical density of 450 nm with a reference wavelength of 600 nm using Tecan F200 and iControl software. IC50 values were determined using GraphPad Prism (GraphPad Software, La Jolla, Calif.). Each experiment was performed in duplicate and repeated 2 times.

[5] = tested on: MHCC97L cells; assay: EMT transwell invasion assay; format: cell-based, human; conditions: agent alone, 10 days, P<0.05
Description: (§2) EMT (Epithelial to Mesenchymal Transition) induction employing kit from R&D systems (Cat # CCM017)
(§3) For transwell invasion assay HCC cells were seeded in the top chamber in 6 well transwell plates (Sigma-Aldrich, St. Louis, Mo.) at a density of 100,000 cells/500 μL/well in standard culture media containing 100× StemXVivo® EMT Inducing Media Supplement (R&D systems, Minneapolis, Minn.) and was incubated overnight at 37° C. in humidified CO2 incubator. Next day, EMT inducing media with or without the test articles was added and incubation was continued for 10 days with media changes every 3 days. On the 10th day, the number of cells migrated to the lower chamber was determined using Bio-Rad (Hercules, Calif.) automatic cell counter. Values obtained were expressed as a percentage of invasion and the cell counts of control cells were considered 100%.
(§4) The invasive potential of cancer cells is dependent on losing epithelial characteristics and acquiring a migratory mesenchymal property referred to as Epithelial to Mesenchymal Transition (EMT).

[6] = tested on: MHCC97H cells; assay: EMT transwell invasion assay; format: cell-based, human; conditions: agent alone, 10 days, P<0.05
Description: as §2, §3, §4

Question: How did the IC50 [1] turn out when `CNC(=O)c1nn(C)c2c1C(C)(C)Cc1cnc(Nc3ccc(N4CCN(C)CC4)cc3)nc1-2` [MILCICLIB, N,1,4,4-tetramethyl-8-((4-(4-methylpiperazin-1-yl)phenyl)amino)-4,5-dihydro-1H-pyrazolo[4,3-h]quinazoline-3-carboxamide] was run?
Answer: The IC50 was 1300 nM.

Question: And the PTEN expression [2]?
Answer: Its PTEN expression is “upregulation”.

Question: What about the “pAKT, c-Myc and cyclin D1 expression” value [2] of the same compound?
Answer: Its value is “reduction”.

Question: What about the “expression of cell proliferation genes such as MKI67, cdc6, c-Myc” value ([3]; oral administration) of the same compound?
Answer: Its value is “downregulated”.

Question: What about the “expression of cyclins such as cyclin E2 and cyclin D1” value ([3]; oral administration) of the same compound?
Answer: The value was “downregulated”.

Question: And the “expression of tumor suppressors such as p27, p21, p53 and p57” value ([3]; oral treatment)?
Answer: Its value is “upregulated”.

Question: And the IC50 [4]?
Answer: Its IC50 is 1000 nM.

Question: And the “cell migration (EMT assay)” value [5]?
Answer: The value was “statistically significant inhibition”.

Question: What about the “cell migration (EMT assay)” value [6] of the same compound?
Answer: The value was “statistically significant inhibition”.
